From patent publication US5747235A, “Silver halide light sensitive emulsion layer having enhanced photographic sensitivity” (Eastman Kodak Company, priority 1996, dated 1998)

Key:
[1] = oxidation potential E1 by cyclic voltammetry; assay type: physicochemical; conditions: Table A; 80%/20% acetonitrile/water, 0.1M lithium perchlorate, 25° C.
Method: Oxidation potentials are well known and can be found, for example, in "Encyclopedia of Electrochemistry of the Elements", Organic Section, Volumes XI-XV, A. Bard and H. Lund (Editors) Marcel Dekker Inc., NY. (1984). E1 can be measured by the technique of cyclic voltammetry. In this technique, the electron donating compound is dissolved in a solution of 80%/20% by volume acetonitrile to water containing 0.1M lithium perchlorate. Oxygen is removed from the solution by passing nitrogen gas through the solution for 10 minutes prior to measurement. A glassy carbon disk is used for the working electrode, a platinum wire is used for the counter electrode, and a saturated calomel electrode (SCE) is used for the reference electrode. Measurement is conducted at 25° C. using a potential sweep rate of 0.1 V/sec. The oxidation potential vs. SCE is taken as the peak potential of the cyclic voltammetric wave.

[2] = fragmentation rate constant kfr by laser flash photolysis; assay type: physicochemical; conditions: Table B; CH3CN/H2O (4:1)
From the text: The kinetics of the bond cleavage or fragmentation reaction can be measured by conventional laser flash photolysis. […] The specific experimental apparatus we used to measure fragmentation rate constants and radical oxidation potentials is described in detail below.
(b) Fragmentation Rate Constant Determination
These absorptions were used to determine the kinetics of the fragmentation reactions of the radical cations of the X-Y. Excitation of 9,10-dicyanoanthracene (DCA) in the presence of biphenyl and the X-Y donor, as described above, results in the formation of the DCA^.cndot.- and the X-Y^.cndot.+. By using a concentration of X-Y of ca. 10^-2 M, the X-Y^.cndot.+ can be formed within ca. 20 ns of the laser pulse. […] The monitoring wavelengths used were somewhat different for the different donors, but were mostly around 470-530 nm. […] Alternatively, when the decay rate of the X-Y^.cndot.+ was less than 10^6 s^-1, the solutions were purged with oxygen.
The experiments measuring the fragmentation rate constants were performed in acetonitrile with the addition of 20% water, so that all of the salts could be easily solubilized. Most experiments were performed at room temperature. […] When this happened, the fragmentation rate constants were measured as a function of temperature, and the rate constant at room temperature determined by extrapolation.

[3] = oxidation potential E2 of radical X by laser flash photolysis; assay type: physicochemical; conditions: Table C; by parent XY compound; < = more negative than
From the text: In this technique, the compound X-Y is oxidized by an electron transfer reaction initiated by a short laser pulse. The oxidized form of X-Y then undergoes the bond cleavage reaction to give the radical X^.cndot.. X^.cndot. is then allowed to interact with various electron acceptor compounds of known reduction potential. […] The experimental details are set forth more fully below. The oxidation potentials (E2) for radicals X^.cndot. for typical compounds useful in accordance with our invention are given in Table C. Where only limits on potentials could be determined, the following notation is used: <-0.90 V should be read as "more negative than -0.90 V" and >-0.40 V should be read as "less negative than -0.40 V".
(a) Oxidation Potential of Radical X.cndot.
The laser flash photolysis measurements were performed using a nanosecond pulsed excimer (Questek model 2620, 308 nm, ca. 20 ns, ca. 100 mJ) pumped dye laser (Lambda Physik model FL 3002). The laser dye was DPS (commercially available from Exciton Co.) in p-dioxane (410 nm, ca. 20 ns, ca. 10 mJ). The analyzing light source was a pulsed 150W xenon arc lamp (Osram XBO 150/W). The arc lamp power supply was a PRA model 302 and the pulser was a PRA model M-306. The pulser increased the light output by ca. 100 fold, for a time period of ca. 2-3 ms. The analyzing light was focussed through a small aperture (ca. 1.5 mm) in a cell holder designed to hold 1 cm^2 cuvettes. The laser and analyzing beams irradiated the cell from opposite directions and crossed at a narrow angle (ca. 15°). After leaving the cell, the analyzing light was collimated and focussed onto the slit (1 mm, 4 nm bandpass) of an ISA H-20 monochromator. The light was detected using 5 dynodes of a Hamamatsu model R446 photomultiplier. The output of the photomultiplier tube was terminated into 50 ohm, and captured using a Tektronix DSA-602 digital oscilloscope. The entire experiment is controlled from a personal computer.
The experiments were performed either in acetonitrile, or a mixture of 80% acetonitrile and 20% water. The first singlet excited state of a cyanoanthracene (A), which acted as the electron acceptor, was produced using the nanosecond laser pulse at 410 nm. […] Secondary electron transfer then occurred between B^.cndot.+ and the lower oxidation potential electron donor X-Y, to generate X-Y^.cndot.+ in high yield. For the investigations of the oxidation potentials of the radicals X^.cndot., typically the cyanoanthrancene concentration was ca. 2×10^-5 M to 10^-4 M the biphenyl concentration was ca. 0.1M. The concentration of the X-Y donor was ca. 10^-3 M. The rates of the electron transfer reactions are determined by the concentrations of the substrates. The concentrations used ensured that the A^.cndot.- and the X-Y^.cndot.+ were generated within 100 ns of the laser pulse. The radical ions could be observed directly by means of their visible absorption spectra. The kinetics of the photogenerated radical ions were monitored by observation of the changes in optical density at the appropriate wavelengths.
The reduction potential (Ered) of 9,10-dicyanoanthracene (DCA) is -0.91 V. In a typical experiment, DCA is excited and the initial photo-induced electron transfer from the biphenyl (B) to the DCA forms a DCA^.cndot.-, which is observed at its characteristic absorption maximum (λobs =705 nm), within ca. 20 ns of the laser pulse. Rapid secondary electron transfer occurs from X-Y to B^.cndot.+ to generate X-Y^.cndot.+, which fragments to give X^.cndot.. A growth in absorption is then observed at 705 nm with a time constant of ca. 1 microsecond, due to reduction of a second DCA by the X^.cndot.. The absorption signal with the microsecond growth time is equal to the size of the absorption signal formed within 20 ns.
If the oxidation potential of X^.cndot. is not sufficiently negative to reduce DCA, an estimate of its oxidation potential was obtained by using other cyanoanthracenes as acceptors. […]

[4] = Example 7: photographic speed and fog with/without HB3, 365 nm exposure, emulsion T-2; conditions: emulsions containing red or blue sensitizing dye and electron donor
Method: (§1) For photographic evaluation, each of the coating strips was exposed for 0.1 sec to a 365 nm emission line of a Hg lamp filtered through a Kodak Wratten filter number 18A and a step wedge ranging in density from 0 to 4 density units in 0.2 density steps. The exposed film strips were developed for 6 min in Kodak Rapid X-ray Developer (KRX). S365, relative sensitivity at 365 nm, was evaluated at a density of 0.2 units above fog.
An AgBrI tabular silver halide emulsion (Emulsion T-2) was prepared containing 4.05% total I distributed such that the central portion of the emulsion grains contained 1.5% I and the perimeter area contained substantially higher I, as described by Chang et. al., U.S. Pat. No. 5,314,793. […] This emulsion was precipitated using deionized gelatin. The emulsion was sulfur sensitized by adding 8.5×10^-6 mole 1,3-dicarboxymethyl-1,3-dimethyl-2-thiourea /mole Ag at 40° C.; the temperature was then raised to 60° C. at a rate of 5° C./3 min and the emulsions held for 20 min before cooling to 40° C. The chemically sensitized emulsion was then used to prepare coatings containing the fragmentable two-electron donor compounds. […] Where present, the blue sensitizing dye D-I or the red sensitizing dye D-II were added from methanol solution to the emulsion at 40° C. after the chemical sensitization and disulfocatechol addition. The fragmentable two-electron donor compounds were added to the emulsion at 40° C. and the coatings were prepared and tested as described in Example 1, except that the additional gelatin used to prepare the coatings described in Table III was deionized gelatin.
Where present the blue sensitizing dye D-I or the red sensitizing dye D-II were added from methanol solution to the emulsion at 40° C. after the chemical sensitization and disulfocatechol addition. The fragmentable two-electron donating compounds were then added to the emulsion and coatings prepared as described in Example 1, except that the additional gelatin used to prepare the coatings described in Table VII was deionized gelatin. The coatings were tested for their response to a 365 nm exposure as described in Example 1.

[5] = Example 9: photographic speed and fog, 365 nm exposure, red dyed emulsion T-2; conditions: for Fog / S365: dye II 0.86 x10^-3; for S365: undyed control=100, dyed control 62
Method: as §1
An AgBrI tabular silver halide emulsion (Emulsion T-2) was prepared containing 4.05% total I distributed such that the central portion of the emulsion grains contained 1.5% I and the perimeter area contained substantially higher I, as described by Chang et. al., U.S. Pat. No. 5,314,793. […] This emulsion was precipitated using deionized gelatin. The emulsion was sulfur sensitized by adding 8.5×10^-6 mole 1,3-dicarboxymethyl-1,3-dimethyl-2-thiourea /mole Ag at 40° C.; the temperature was then raised to 60° C. at a rate of 5° C./3 min and the emulsions held for 20 min before cooling to 40° C. The chemically sensitized emulsion was then used to prepare coatings containing the fragmentable two-electron donor compounds. All of the experimental coating variations in Table III contained the hydroxybenzene 2,4-disulfocatechol (HB3) at a concentration of 13 mmole/ mole Ag, added to the melt before the addition of any further addenda. Where present, the blue sensitizing dye D-I or the red sensitizing dye D-II were added from methanol solution to the emulsion at 40° C. after the chemical sensitization and disulfocatechol addition. The fragmentable two-electron donor compounds were added to the emulsion at 40° C. and the coatings were prepared and tested as described in Example 1, except that the additional gelatin used to prepare the coatings described in Table III was deionized gelatin.
The sulfur sensitized AgBrI tabular emulsion T-2 as described in Example 3 was used to prepare coatings of the fragmentable two-electron donors S-15, S-14, S-13, and S-11, as described in Table IX. All of the experimental coating variations in Table IX contained the hydroxybenzene, 2,4-disulfocatechcol (HB3) at a concentration of 13 mmole/mole Ag, added to the melt before any further addenda. Where present, the red sensitizing dye D-II was added from methanol solution to the emulsion at 40° C. after the chemical sensitization and disulfocatechol addition. The fragmentable two-electron donor compounds were then added to the emulsion and coatings prepared and tested as described in Example I, except that the additional gelatin used to prepare the coatings described in Table IX was deionized gelatin.

| Molecule | Oxidation Potential of X--Y, E1 [1] | kfr, Rate Constants for Decarboxylation of Radical Cations [2] | Oxidation Potentials of Radicals (X*), E2 [3] | other results |
| --- | --- | --- | --- | --- |
| CC(C(=O)O)N(CC(=O)O)c1ccccc1 (stereo not drawn) [Compound 14] | 0.50 V vs SCE | > 2e+07 s⁻¹ | < -0.9 V |  |
| COc1ccc(N(CC(=O)O)C(C)C(=O)O)cc1 (stereo not drawn) [Compound 15] | 0.36 V vs SCE | 90000 s⁻¹ | < -0.9 V |  |
| Cc1ccc(N(CC(=O)O)C(C)C(=O)O)cc1 (stereo not drawn) [Compound 20] | 0.46 V vs SCE | 8.1e+06 s⁻¹ | < -0.9 V |  |
| Cc1ccc(NC(CC(=O)O)C(=O)O)cc1 (stereo not drawn) [Compound 29] | 0.52 V vs SCE | 5.4e+06 s⁻¹ | < -0.9 V |  |
| CCCCN(c1ccc(OC)cc1)C(C)C(=O)O (stereo not drawn) [Compound 36] | 0.22 V vs SCE | 1.1e+06 s⁻¹ | < -0.9 V |  |
| Cn1cc(C(C)(C)C(=O)O)c2ccccc21 [Compound 44] | 0.64 V vs SCE | 530000 s⁻¹ | -0.81 V |  |
| Cc1ccc(NC(C)C(=O)O)cc1 (stereo not drawn) [Compound 54] | 0.44 V vs SCE | 1.4e+07 s⁻¹ | < -0.9 V |  |
| O=C(O)C(O)c1c2ccccc2cc2ccccc12 (stereo not drawn) [Compound 56] | 0.65 V vs SCE | 120000 s⁻¹ | < -0.9 V |  |
| CC(C(=O)O)N1c2ccccc2Sc2ccccc21 (stereo not drawn) [Compound 57] | 0.49 V vs SCE | ca. 1 × 10^5 s^-1 | < -0.9 V |  |
| O=S(=O)(O)c1cc(O)c(O)c(S(=O)(=O)O)c1 [HB3, 2,4-disulfocatechol, reference compound] |  |  |  | effect on fog [4]: the level of fog can be lowered |
| N-(4-Carboxyethylphenyl)-N-(2-thioethyl-ethyl)alanine sodium salt [Compound S-15] |  |  |  | Fog ([5]; 0.007 x10^-3 mol/mol Ag): 0.13; S365 ([5]; 0.007 x10^-3 mol/mol Ag): 95; Fog ([5]; 0.022 x10^-3 mol/mol Ag): 0.23; S365 ([5]; 0.022 x10^-3 mol/mol Ag): 105; 365 nm sensitivity of dyed emulsion ([5]; dye D-II): restored to that of the undyed emulsion |
